This note sets out measurements from patent US11649248B2, “Oxadiazaspiro compounds for the treatment of drug abuse and addiction” (ESTEVE PHARMACEUTICALS, S.A., priority 2015, dated 2023).

The assay concerns the target human σ1 receptor (Homo sapiens (Human), UniProt Q99720). In words: Human σ1 receptor radioligand assay. It counts as binding. The settings on record: transfected HEK-293 membranes, [3H](+)-pentazocine radioligand. Here is the method:
Human σ1 Receptor Radioligand Assay
The assay was carried out with 7 μg of membrane suspension, 5 nM of [^3H](+)-pentazocine in either absence or presence of either buffer or 10 μM Haloperidol for total and non-specific binding, respectively. Binding buffer contained Tris-HCl 50 mM at pH 8. Plates were incubated at 37° C. for 120 minutes. […] Filters were dried and counted at approximately 40% efficiency in a MicroBeta scintillation counter (Perkin-Elmer) using EcoScint liquid scintillation cocktail

Chain of human σ1 receptor (Q99720 whole entry): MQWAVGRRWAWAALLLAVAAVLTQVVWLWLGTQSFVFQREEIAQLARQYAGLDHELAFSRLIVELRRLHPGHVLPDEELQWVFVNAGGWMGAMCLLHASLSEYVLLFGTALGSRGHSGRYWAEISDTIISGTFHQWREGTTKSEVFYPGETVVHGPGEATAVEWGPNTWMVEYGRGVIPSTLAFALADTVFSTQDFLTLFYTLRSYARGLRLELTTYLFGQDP

Broadly, the Ki is the dissociation constant of the complex between target and ligand, obtained from inhibition or displacement. `CCN1CC2(CCN(CCC(C)(C)C)CC2)O[C@@H](C)C1=O` [Example 52, (S)-9-(3,3-dimethylbutyl)-4-ethyl-2-methyl-1-oxa-4,9-diazaspiro[5.5]undecan-3-one] displayed an inhibition constant (Ki) of less than 500 nM.
